Results from the supplement of paper PMC10307832.

Assays:
Experiment in all cases: relative viability (nuclei count vs DMSO), 5 days (fraction); higher = more cells survive
[1] = compound: CC(C)N(CCCNC(=O)Nc1ccc(C(C)(C)C)cc1)C[C@H]1O[C@@H](n2ccc3c(N)ncnc32)[C@H](O)[C@@H]1O + CS(=O)(=O)N1CCN(Cc2cc3nc(-c4cccc5[nH]ncc45)nc(N4CCOCC4)c3s2)CC1 [Pictilisib] (partner 1 µM)
Outline: (§1)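 The day after seeding in 1536-well plates, lung cancer cell lines were treated by pin tool with a single drug, or with a fixed anchor-drug dose together with five library-drug doses (not always all listed) in √10 steps. After 5 days, a combined fix-and-stain solution (final 0.05% Triton X-100, 1% formaldehyde, 1 ug/ml Hoechst) was added. Nuclei counted on 4× images gave relative viability as treated counts over vehicle counts, reported as the median of duplicate plates.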

[2] = compound: CC(C)N(CCCNC(=O)Nc1ccc(C(C)(C)C)cc1)C[C@H]1O[C@@H](n2ccc3c(N)ncnc32)[C@H](O)[C@@H]1O + COc1cc2c(Oc3ccc(NC(=O)C4(C(=O)Nc5ccc(F)cc5)CC4)cc3F)ccnc2cc1OCCCN1CCOCC1 [Foretinib] (partner 0.25 µM)
Outline: as §1

Shikonin + Dasatinib = compound: CC(C)=CC[C@@H](O)C1=CC(=O)c2c(O)ccc(O)c2C1=O [Shikonin] + Cc1nc(Nc2ncc(C(=O)Nc3c(C)cccc3Cl)s2)cc(N2CCN(CCO)CC2)n1 [Dasatinib] (partner 0.075 µM)
Outline: as §1

[3] = compound: CC(C)N(CCCNC(=O)Nc1ccc(C(C)(C)C)cc1)C[C@H]1O[C@@H](n2ccc3c(N)ncnc32)[C@H](O)[C@@H]1O + CC(=O)Nc1cccc(-n2c(=O)n(C3CC3)c(=O)c3c(Nc4ccc(I)cc4F)n(C)c(=O)c(C)c32)c1 [Trametinib] (partner 0.02 µM)
Outline: as §1

Row | Cell Line | relative viability ([1]; first compound 0.08 µM) | relative viability ([1]; first compound 0.253 µM) | relative viability ([1]; first compound 0.8 µM) | relative viability ([1]; first compound 2.53 µM) | relative viability ([1]; first compound 8 µM) | relative viability ([2]; first compound 0.08 µM) | relative viability ([2]; first compound 0.253 µM) | relative viability ([2]; first compound 0.8 µM) | relative viability ([2]; first compound 2.53 µM) | relative viability ([2]; first compound 8 µM) | relative viability (Shikonin + Dasatinib; first compound 0.01 µM) | relative viability (Shikonin + Dasatinib; first compound 0.1 µM) | relative viability (Shikonin + Dasatinib; first compound 0.3162 µM) | relative viability (Shikonin + Dasatinib; first compound 1 µM) | relative viability ([3]; first compound 0.08 µM) | relative viability ([3]; first compound 0.253 µM) | relative viability ([3]; first compound 0.8 µM) | relative viability ([3]; first compound 2.53 µM) | relative viability ([3]; first compound 8 µM)
1 | SK-MES-1 | 0.359 | 0.363 | 0.304 | 0.33 | 0.342 | 0.792 | 0.848 | 0.881 | 1 | 0.804 | 0.26 | 0.453 | 0.323 | 0.375 | 0.537 | 0.63 | 0.589 | 0.553 | 0.537
2 | NCI-H2170 | 0.36 | 0.262 | 0.336 | 0.372 | 0.323 | 0.967 | 0.987 | 0.995 | 0.992 | 0.977 | 0.611 | 0.465 | 0.651 | 0.54 | 0.965 | 0.912 | 0.862 | 0.866 | 0.914
3 | NCI-H2087 | 0.898 | 0.778 | 0.745 | 0.963 | 0.653 | 1.1 | 1.32 | 1.22 | 1.14 | 1.22 | 0.868 | 1.1 | 0.83 | 0.893 | 0.165 | 0.191 | 0.225 | 0.232 | 0.22
4 | NCI-H1993 | 0.822 | 0.716 | 0.868 | 0.781 | 0.773 | 0.755 | – | – | 0.796 | 0.784 | 0.537 | 0.489 | 0.645 | 0.361 | 0.609 | – | 0.569 | 0.471 | 0.486
5 | PC-14 | 0.657 | 0.528 | 0.795 | 0.882 | 0.57 | 0.912 | 0.944 | 0.896 | 0.95 | 0.792 | 0.224 | 0.258 | 0.263 | 0.24 | 0.648 | 0.701 | 0.842 | 0.718 | 0.558
6 | NCI-H460 | 0.305 | 0.391 | 0.335 | 0.381 | 0.38 | 1.05 | 1.1 | 1.03 | 1.05 | 0.996 | 0.509 | 0.762 | 0.556 | 0.605 | 0.103 | 0.0737 | 0.0752 | 0.127 | 0.129
7 | LOU-NH91 | 0.537 | 0.527 | – | 0.556 | 0.545 | 0.858 | 0.946 | 0.571 | 0.958 | 0.924 | 0.551 | 0.551 | 0.639 | 0.584 | 0.788 | 0.768 | – | 0.824 | 0.763
8 | NCI-H322M | 0.54 | 0.478 | 0.566 | 0.44 | 0.57 | 0.904 | 0.894 | 0.94 | 1.02 | 1.06 | 0.237 | 0.271 | 0.261 | 0.27 | 0.5 | 0.533 | 0.544 | 0.475 | 0.517
